According to patent EP1738803A1, “Inhibitors of staphylococcus hominis in deodorants and antiperspirants” (Henkel Kommanditgesellschaft auf Aktien, priority 2005, dated 2007):
Like-named read-outs stand apart in the source and are kept apart here.

Tested on: Staphylococcus hominis
Assay: Inhibition test: growth of Staphylococcus hominis in Luria broth liquid culture, plate count versus control
Format: cell-based
Conditions: for Hemmleistung als Differenz zur Kontrolle in log-Stufen (RF-Wert): 0,5 Gew.-% Aktivsubstanz; for Hemmleistung als Differenz zur Kontrolle in log-Stufen (RF-Wert) / log reduction at 0.1 % / log reduction at 0.05 %: 37°C; for log reduction at 0.2 % / log reduction at 0.5 % / log reduction at 0.1 % / log reduction at 0.05 %: Staphylococcus hominis, read-out: Hemmleistung als Differenz zur Kontrolle in log-Stufen (RF-Wert); for log reduction at 0.1 %: 0,1 Gew.-% Aktivsubstanz; for log reduction at 0.05 %: 0,05 Gew.-% Aktivsubstanz
Procedure: Eine Luria-broth-Vorkultur (1 Gew.-% Trypton, 0,5 Gew.-% Hefeextrakt, 0,5 Gew.-% NaCl) von Staphylococcus hominis wurde mit Medium auf eine OD600 von 0,1 (entspricht 10^5-10^7 cfu/ml) eingestellt und in 50 ml-Aliquots auf Erlenmeyer-Kolben verteilt. Dazu wurden die zu testenden Wirkstoffe gegeben, so dass sie in den in Tabelle 1 angegebenen Konzentrationen vorlagen, und die Kultur mit 100 Upm bei 37°C inkubiert. Öllösliche Stoffe wie Bisabolol wurden mit 0,1% Tween emulgiert und gegen eine entsprechende Kontrolle getestet. Nach 4, 8 und 24 h erfolgte eine Keimzahlbestimmung über Ausplattieren, wobei die Hemmleistung der einzelnen Wirkstoffe als RF-Wert (Differenz zur Kontrolle in log-Stufen) angegeben ist. Tabelle 1

## Aluminiumchlorhydrat
Zeit 0 h
  Hemmleistung als Differenz zur Kontrolle in log-Stufen (RF-Wert): 0 log-Stufen
Zeit 4 h
  Hemmleistung als Differenz zur Kontrolle in log-Stufen (RF-Wert): 6,07 log-Stufen
Zeit 8 h
  Hemmleistung als Differenz zur Kontrolle in log-Stufen (RF-Wert): 6,34 log-Stufen

## CCCCC(CC)COCC(O)CO (stereo not drawn) [Sensiva SC 50, α-Mono-(2-ethylhexyl)glycerinether]
0 h
  log reduction at 0.2 %: 0
  log reduction at 0.5 %: 0
4 h
  log reduction at 0.2 %: 5.77
  log reduction at 0.5 %: 6.14
8 h
  log reduction at 0.2 %: 6.19
  log reduction at 0.5 %: 6.63

## CC(C)=CCC[C@](C)(O)C1CC=C(C)CC1 (stereo partly drawn) [(-)-α-Bisabolol]
Zeit 0 h
  log reduction at 0.1 %: 0
  log reduction at 0.05 %: 0
Zeit 4 h
  log reduction at 0.1 %: 1.98
  log reduction at 0.05 %: 1.3
Zeit 8 h
  log reduction at 0.1 %: 2.6
  log reduction at 0.05 %: 1.75
